Data on 14 compounds can be found in patent publication US11384075B2, “Quinolinone compounds” (Janssen Pharmaceutica NV, priority 2017, dated 2022).

The target in experiment [1] is T1, NIH/3T3 cells overexpressing FGFR3 WT-TACC3 fusion protein (Homo sapiens, UniProt P22607).
T1 construct: NIH/3T3 FGFR3 WT-TACC3 CTG (IC50); other: 72-hr incubation, CellTiter Glo, starting with 10 μM; fused on or other part: Q9Y6A5 (Transforming acidic coiled-coil-containing protein 3)
Nature of the experiment: NIH/3T3 FGFR3 WT-TACC3 cell proliferation assay. The format is cell-based. To be noted: 72-hr incubation, CellTiter Glo, starting with 10 μM; read-out: NIH/3T3 FGFR3 WT-TACC3 CTG (IC50). The procedure, abridged:
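Cells seeded overnight, then exposed 72 h at 37 °C to compound in 9-point 4-fold dilutions from 10 μM (0.1% DMSO final). Viability read by CellTiter-Glo luminescence, normalized to survival %; IC50, pIC50 and Hill slope from concentration-response fit.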
(In general: In ATP-based viability assays light output follows the ATP content of the culture.)

Experiment [2] has as its target T2, NIH/3T3 cells overexpressing FGFR3 V555M-TACC3 fusion protein (Homo sapiens, UniProt P22607, V555M, cells depend on it).
T2 construct: NIH/3T3 FGFR3 V555M-TACC3 CTG (IC50); other: 72-hr incubation, CellTiter Glo, starting with 10 μM; fused on or other part: Q9Y6A5 (Transforming acidic coiled-coil-containing protein 3)
Nature of the experiment: NIH/3T3 FGFR3 V555M-TACC3 cell proliferation assay. Format: cell-based. As to conditions: 72-hr incubation, CellTiter Glo, starting with 10 μM; read-out: NIH/3T3 FGFR3 V555M-TACC3 CTG (IC50). The procedure, abridged:
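NIH/3T3 cells overexpressing FGFR3 V555M-TACC3 fusion, 30,000/well in DMEM/10% FBS, treated for 72 h at 37 °C with 9 doses (4× dilutions from 10 μM top, 0.1% DMSO). CellTiter-Glo luminescence normalised to % survival; IC50, pIC50 and Hill slope from concentration-response fits.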

Experiment [3] has as its target T3, human FGFR3 wild type enzyme (cytoplasmic domain) (Homo sapiens, UniProt P22607).
T3 construct: human FGFR3 wild type enzyme (cytoplasmic domain, from Carna Biosciences); purchased Carna Biosciences
Nature of the experiment: FGFR3 wild type mobility shift assay (enzymatic assay). The format is biochemical. To be noted: 75 μM ATP, 50 minutes at 30° C., Caliper EZ reader II. The procedure, abridged:
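Cytoplasmic domain of human wild-type FGFR3 (0.04 ng/μL) with 75 μM ATP and 1 μM FL-peptide 30, pH 7.4 HEPES/MgCl2 buffer, 1% DMSO, 50 min at 30 °C, EDTA-stopped. Substrate-product conversion read by mobility shift. IC50, pIC50 and Hill slope from 10-point 4-fold dilutions starting at 10 μM.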

For experiment [4], the system named is NIH/3T3 cells transfected with the same control vector. Put plainly: NIH/3T3 mock cell proliferation assay (counter assay, general toxicity). The format is cell-based. As to conditions: Mus musculus, NIH3T3, 72 h, 72-hr incubation, CellTiter Glo, starting with 30 μM; counter assay for general toxicity; read-out: NIH/3T3 MOCK CTG (IC50). In outline: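 Control-vector NIH/3T3 cells, 30,000/well in DMEM with 10% FBS, exposed 72 h at 37 °C to compound (9 points, 3-fold from 30 μM, 0.3% DMSO). CellTiter-Glo luminescence normalized to survival %; IC50, pIC50 and Hill slope from concentration-response fit.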

The target in experiment [5] is T4, human FGFR3 V555M enzyme (cytoplasmic domain carrying V555M mutation) (Homo sapiens, UniProt P22607, V555M).
T4 construct: human FGFR3 V555M enzyme (cytoplasmic domain carrying V555M mutation, from Carna Biosciences); purchased Carna Biosciences
T4 sequence (P22607 397-806 V555M limits assumed): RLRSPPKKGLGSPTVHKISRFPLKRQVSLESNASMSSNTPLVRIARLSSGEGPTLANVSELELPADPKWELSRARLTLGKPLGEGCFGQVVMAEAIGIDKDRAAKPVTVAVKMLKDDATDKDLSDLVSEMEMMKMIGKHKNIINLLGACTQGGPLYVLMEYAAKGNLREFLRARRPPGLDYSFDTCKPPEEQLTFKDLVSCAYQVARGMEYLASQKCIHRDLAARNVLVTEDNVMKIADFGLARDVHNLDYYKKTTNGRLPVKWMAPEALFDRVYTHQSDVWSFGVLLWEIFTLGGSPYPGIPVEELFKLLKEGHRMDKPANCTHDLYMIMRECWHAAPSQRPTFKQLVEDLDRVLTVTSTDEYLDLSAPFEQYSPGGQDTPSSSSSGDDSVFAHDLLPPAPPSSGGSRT
Nature of the experiment: FGFR3 V555M mobility shift assay (enzymatic assay). To be noted: 30 μM ATP, 45 minutes at 30° C., Caliper EZ reader II. Format: biochemical. The procedure, abridged:
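Cytoplasmic-domain FGFR3 V555M (0.04 ng/μL) with 30 μM ATP and 1 μM FL-peptide 30 in HEPES pH 7.4/MgCl2/Brij35/DTT, 1% DMSO, 45 min at 30 °C, EDTA-stopped. Mobility-shift read of substrate-product conversion; 10-point 4× dilution from 10 μM fitted for IC50/pIC50.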

T3 sequence (P22607 397-806 limits assumed): as the sequence (P22607 397-806 V555M limits assumed) above, with M159V counted along it
T2 sequence (P22607 whole entry V555M, the tested form may be a part): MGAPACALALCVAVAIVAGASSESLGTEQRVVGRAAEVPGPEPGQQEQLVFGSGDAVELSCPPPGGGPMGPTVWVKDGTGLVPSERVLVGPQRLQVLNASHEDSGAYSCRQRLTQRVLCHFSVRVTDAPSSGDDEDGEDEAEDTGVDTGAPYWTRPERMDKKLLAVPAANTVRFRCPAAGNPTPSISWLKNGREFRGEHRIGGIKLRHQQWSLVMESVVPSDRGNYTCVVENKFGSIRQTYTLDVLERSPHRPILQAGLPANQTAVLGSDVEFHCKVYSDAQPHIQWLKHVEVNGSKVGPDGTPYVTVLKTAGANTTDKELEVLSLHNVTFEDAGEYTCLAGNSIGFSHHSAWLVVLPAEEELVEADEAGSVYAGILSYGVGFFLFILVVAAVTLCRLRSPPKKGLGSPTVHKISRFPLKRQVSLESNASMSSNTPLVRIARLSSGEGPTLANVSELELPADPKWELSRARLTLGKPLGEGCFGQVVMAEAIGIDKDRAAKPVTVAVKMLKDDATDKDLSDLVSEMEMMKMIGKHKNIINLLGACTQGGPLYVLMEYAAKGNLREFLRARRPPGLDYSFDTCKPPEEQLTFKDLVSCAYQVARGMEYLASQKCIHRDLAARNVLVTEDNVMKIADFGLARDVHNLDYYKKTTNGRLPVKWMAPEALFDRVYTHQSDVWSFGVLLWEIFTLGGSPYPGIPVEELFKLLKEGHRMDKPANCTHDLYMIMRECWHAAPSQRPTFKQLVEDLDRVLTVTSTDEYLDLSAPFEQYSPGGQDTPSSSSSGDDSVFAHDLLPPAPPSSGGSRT
T1 sequence (P22607 whole entry, change not shown, the tested form may be a part): as the sequence (P22607 whole entry V555M, the tested form may be a part) above, with M555V counted along it

Regarding `Cc1ccnc(C(C)Nc2c(-c3nc4ccc(N5CCOCC5)cc4[nH]3)c(=O)[nH]c3ccccc23)n1` (single isomer, unassigned) [Compound 34a, (S*)-4-((1-(4-methylpyrimidin-2-yl)ethyl)amino)-3-(6-morpholino-1H-benzo[d]imidazol-2-yl)quinolin-2(1H)-one], the values for the GI50 in experiment [1] and in experiment [2] were 43.1 nM and 70.4 nM, respectively. Also, the figures for the IC50 in experiment [3], in experiment [4] and in experiment [5] were 9 nM, 1320 nM and 1.59 nM, respectively.

`CC(Nc1c(-c2nc3ccc(N4C[C@H](C)O[C@@H](C)C4)cc3[nH]2)c(=O)[nH]c2ccccc12)c1ncccn1` (single isomer, unassigned) [Compound 39a, 3-(6-((2S,6S)-2,6-dimethylmorpholino)-1H-benzo[d]imidazol-2-yl)-4-(((S*)-1-(pyrimidin-2-yl)ethyl)amino)quinolin-2(1H)-one]: the GI50 turned out to be 6.58 nM in experiment [1] and 6.47 nM in experiment [2]. In addition, the IC50 in experiment [3] came out at 0.174 nM; in experiment [4], 1600 nM; in experiment [5], 0.136 nM.

As for `C[C@H](Nc1c(-c2nc3ccc(N4CCCCC4)cc3[nH]2)c(=O)[nH]c2ccccc12)c1ncccn1` (single isomer, unassigned) [Compound 28a, (S*)-3-(6-(piperidin-1l-yl)-1H-benzo[d]imidazol-2-yl)-4-((1-(pyrimidin-2-yl)ethyl)-amino)quinolin-2(1H)-one], the GI50 came out at 5.49 nM in experiment [1] and 8.35 nM in experiment [2]. Besides, the IC50 in experiment [3] was determined as 0.552 nM; in experiment [4] it was 7220 nM; in experiment [5], 0.302 nM.

Turning to `CC(Nc1c(-c2nc3ccc(N4CCN(C)CC4)c(F)c3[nH]2)c(=O)[nH]c2ccccc12)c1ccccn1` (single isomer, unassigned) [Compound 13b, (S*)-3-(7-fluoro-6-(4-methylpiperazin-1-yl)-1H-benzo[d]imidazol-2-yl)-4-((1-(pyridin-2-yl)ethyl)amino)quinolin-2(1H)-one], the values for the GI50 in experiment [1] and in experiment [2] were 3.46 nM and 4.34 nM, respectively. Also, the IC50 in experiment [3] was determined as 1.05 nM; in experiment [4] it was 1740 nM; in experiment [5] it was 0.449 nM.

For the compound `COc1ccnc(C(C)Nc2c(-c3nc4ccc(N5CCOCC5)cc4[nH]3)c(=O)[nH]c3ccccc23)c1` (single isomer, unassigned) [Compound 48a, (S*)-4-((1-(4-methoxypyridin-2-yl)ethyl)amino)-3-(6-morpholino-1H-benzo[d]imidazol-2-yl)quinolin-2(1H)-one], the GI50 in experiment [1] turned out to be 454 nM; in experiment [2] it was 547 nM. Moreover, the IC50 amounted to 19.9 nM in experiment [3], 5670 nM in experiment [4] and 5.41 nM in experiment [5].

Take `Cc1cc(N2CCOCC2)cc2[nH]c(-c3c(N[C@@H](C)c4ncccn4)c4ccccc4[nH]c3=O)nc12` [Compound 46, (S)-3-(4-methyl-6-morpholino-1H-benzo[d]imidazol-2-yl)-4-((1-(pyrimidin-2-yl)ethyl)-amino)quinolin-2(1H)-one]: the GI50 was found to be 19.9 nM in experiment [1] and 15.9 nM in experiment [2]. Moreover, the IC50 was found to be 1.17 nM in experiment [3], 3910 nM in experiment [4] and 0.742 nM in experiment [5].

Turning to `C[C@H](Nc1c(-c2nc3ccc(N4CCOCC4)cc3[nH]2)c(=O)[nH]c2c(F)cccc12)c1ccccn1` [Compound 16, (S)-8-fluoro-3-(6-morpholino-1H-benzo[d]imidazol-2-yl)-4-((1-(pyridin-2-yl)ethyl)-amino)quinolin-2(1H)-one], the results for the GI50 in experiment [1] and in experiment [2] were 253 nM and 274 nM, respectively. In addition, the IC50 came out at 16.6 nM in experiment [3], 2600 nM in experiment [4] and 2.66 nM in experiment [5].

For `CC(Nc1c(-c2nc3cc(C(F)(F)F)c(N4CCOCC4)cc3[nH]2)c(=O)[nH]c2ccccc12)c1ncccn1` (single isomer, unassigned) [Compound 45, (S*)-3-(6-morpholino-5-(trifluoromethyl)-1H-benzo[d]imidazol-2-yl)-4-((1-(pyrimidin-2-yl)ethyl)amino)quinolin-2(1H)-one], the GI50 amounted to 25.3 nM in experiment [1] and 12.2 nM in experiment [2]. Further, the IC50 in experiment [3] came out at 1.17 nM; in experiment [4], 12700 nM; in experiment [5] it was 0.483 nM.

As for `Cc1c(N2CCOCC2)ccc2nc(-c3c(N[C@@H](C)c4ncccn4)c4ccccc4[nH]c3=O)[nH]c12` [Compound 47, (S)-3-(7-methyl-6-morpholino-1H-benzo[d]imidazol-2-yl)-4-((1-(pyrimidin-2-yl)-ethyl)amino)quinolin-2(1H)-one], the GI50 is 16 nM in experiment [1] and 12.3 nM in experiment [2]. In addition, the figures for the IC50 in experiment [3], in experiment [4] and in experiment [5] were 0.67 nM, 547 nM and 0.27 nM, respectively.

On to `C[C@H](Nc1c(-c2nc3ccc(N4CCC(C(=O)O)CC4)cc3[nH]2)c(=O)[nH]c2ccccc12)c1ccccn1` [Compound 6, (S)-1-(2-(2-Oxo-4-((1-(pyridin-2-yl)ethyl)amino)-1,2-dihydroquinolin-3-yl)-H-benzo[d]imidazol-6-yl)piperidine-4-carboxylic acid 0.5formate], for which the GI50 was determined as 32.3 nM in experiment [1] and 61.7 nM in experiment [2]. For the same compound, the values for the IC50 in experiment [3], in experiment [4] and in experiment [5] were 0.809 nM, 795 nM and 0.484 nM, respectively.

Turning to `CC(Nc1c(-c2nc3cc(C(F)(F)F)c(N4CCN(C)CC4)cc3[nH]2)c(=O)[nH]c2ccccc12)c1ncccn1` (single isomer, unassigned) [Compound 25a, (S*)-3-(6-(4-methylpiperazin-1-yl)-5-(trifluoromethyl)-1H-benzo[d]imidazol-2-yl)-4-((1-(pyrimidin-2-yl)ethyl)amino)quinolin-2(1H)-one], the GI50 in experiment [1] was 5.16 nM; in experiment [2] it was 4.82 nM. The IC50 in experiment [3] was 1.22 nM; in experiment [4] it was 2260 nM; in experiment [5], 1.03 nM.

In the case of `CC(Nc1c(-c2nc3ccc(N4C[C@@H](C)O[C@H](C)C4)cc3[nH]2)c(=O)[nH]c2ccccc12)c1ncccn1` (single isomer, unassigned) [Compound 37a, 3-(6-((2R,6R)-2,6-dimethylmorpholino)-1H-benzo[d]imidazol-2-yl)-4-(((S*)-1-(pyrimidin-2-yl)ethyl)amino)quinolin-2(1H)-one], the GI50 in experiment [1] is 11.7 nM; in experiment [2], 4.18 nM. Besides, the IC50 in experiment [3] came to 0.478 nM; in experiment [4], 898 nM; in experiment [5], 0.326 nM.

Regarding `COC(=O)C1CN(c2ccc3nc(-c4c(N[C@@H](C)c5ccccn5)c5ccccc5[nH]c4=O)[nH]c3c2)CCO1` (mixture of isomers) [Compound 59, (Rac)-methyl 4-(2-(2-oxo-4-(((S)-1-(pyridin-2-yl)ethyl)amino)-1,2-dihydroquinolin-3-yl)-1H-benzo[d]imidazol-6-yl)morpholine-2-carboxylate], the GI50 amounted to 31.9 nM in experiment [1] and 61.7 nM in experiment [2]. The IC50 in experiment [3] amounted to 0.788 nM; in experiment [4], 7290 nM; in experiment [5] it was 0.359 nM.

Take `C[C@H](Nc1c(-c2nc3ccc(N4CCOCC4)cc3[nH]2)c(=O)[nH]c2ccc(F)cc12)c1ccccn1` [Compound 17, (S)-6-fluoro-3-(6-morpholino-1H-benzo[d]imidazol-2-yl)-4-((1-(pyridin-2-yl)ethyl)-amino)quinolin-2(1H)-one]: the GI50 in experiment [1] turned out to be 58.7 nM; in experiment [2], 114 nM. In addition, the IC50 in experiment [3] was 4.89 nM; in experiment [4] it was 661 nM; in experiment [5] it was 0.997 nM.
